Laboratory results reported in paper PMC7894426, “Influence of verapamil on the pharmacokinetics of rotundic acid in rats and its potential mechanism” (Pharmaceutical Biology, 2021).
Like-named read-outs stand apart in the source and are kept apart here.

What was measured:
[1] = Metabolic stability in rat liver microsomes with or without verapamil; type: in vitro ADME; settings: rat, liver microsomes, RLMs 1 mg/mL, RA 2 µM; for k el at 2 µM: read-out: ke (converted)
Protocol: (§1) Low metabolic stability is a major barrier to further improve the oral bioavailability of the herb drugs. To gauge the medicinal chemistry value of RA, we evaluated their metabolic stability in RLMs with or without verapamil. The in vitro microsomal stability assay was conducted in triplicate in rat liver microsomal systems, which were supplemented with NADPH as a cofactor. The assay conditions and reaction mixtures were similar to the previous report with minor modifications (Li et al. [2016]; Sun et al. [2019]). Briefly, the incubation system (final volume of 1 mL) consisted of 1 mg/mL rat liver microsomal protein, 1 mM NADPH, and 5 mM MgCl2 in 0.1 M sodium phosphate buffer (pH 7.4). The incubation system was pre-incubated at 37 °C for 15 min and initiated by adding RA methanol solution (final concentration of 2 µM). The effects of verapamil on the metabolic stability of RA were investigated by adding 50 µM of verapamil (Ma et al. [2000]; Lee and Kim [2013]; Dinger et al. [2014]) to RLMs and pre-incubating for 15 min at 37 °C. The final concentration of methanol (used for dissolving the substrate and inhibitor) was lower than 1% (v/v). Negative control was performed in parallel in a heat-inactivated liver microsomes incubation system to measure any chemical instability or non-enzymatic degradation. Aliquots of 50 µL incubation solution were collected from the reaction at 0, 5, 15, 30 and 60 min, and quenched with 50 µL ice-cold methanol (containing 0.5% formic acid) and 100 µL ice-cold acetonitrile containing IS (10 ng/mL). The samples were then vortexed for 1 min and centrifuged at 12,000 rpm for 10 min at 4 °C. The supernatants were collected and analyzed by LC-MS/MS.
(§2) Substrate depletion and in vitro half-life (t1/2) are common descriptors for metabolic stability. The t1/2 is calculated by the substrate disappearance. The obtained concentration value for time t is divided by the value for time zero and then multiplied by a factor of 100, which represents the ‘% Remaining’ to provide the relative remaining substrate level for the time t. The natural logarithm (ln) of the ‘% Remaining’ of RA was plotted against the incubation time (in min) using linear regression.
(§3) Where, ke, the elimination rate constant, is the slope of a linear regression curve in a semilog plot. Data were collected from triplicate experiments.

[2] = test system: rat liver microsomes; test: as above; type: in vitro ADME; settings: heat-inactivated microsomes, RA 2 µM
Protocol: as §1, §2, §3

[3] = pH 7.4, with verapamil 50 µM, pre-treatment of verapamil 50 µM

SMILES: C[C@@H]1CC[C@]2(C(=O)O)CC[C@]3(C)C(=CC[C@@H]4[C@@]5(C)CC[C@H](O)[C@@](C)(CO)[C@@H]5CC[C@]43C)[C@@H]2[C@]1(C)O [RA, Rotundic acid]
- half-life at 2 µM [1, 3]: 58.2 ± 5.17 min
- microsomal CLint at 2 µM [1, 3]: 12 ± 1.06 µL/min/mg
- k el at 2 µM [1, 3]: 0.0002 s⁻¹
- half-life at 2 µM ([1]; pH 7.4, control): 14.3 ± 0.941 min
- microsomal CLint at 2 µM ([1]; pH 7.4, control): 48.5 ± 3.18 µL/min/mg
- k el at 2 µM ([1]; pH 7.4, control): 0.000808 s⁻¹
- degradation in negative control [2]: No obvious degradation
